These results are taken from US20040147595A1, “Biofilm degrading or sloughing compositions and methods” (priority 2001, published 2004).

Like-named read-outs stand apart in the source and are kept apart here.

The test system of assay [1] is las quorum sensing system (lasB-gfp(ASV) expression). Description: AHL and furanone bioassay, PlasB-gfp(ASV) Plac-lasR reporter in planktonic PAO-JP2. In kind it is cell-based, Pseudomonas aeruginosa. How it is done:
(§1) AHL and furanone bioassay. Strains were grown exponentially in LB or ABt medium supplemented with 0.5% glucose at 30° C., shading at 250 rpm. At an optical density of approximately 0.8. the cultures were diluted and split into subcultures in glass culture flasks. AHLs and furanone 56 were added to appropriate concentrations and the cultures were further incubated at 30° C. under vigorous shaking. Culture samples were retrieved at various time intervals and green fluorescence was measured with a fluorometer (model RF-1501, Shimadzu, Tokyo, Japan) set at an excitation wavelength of 475 nm and emission wavelength of 515 nm. Relative fluorescence was calculated as green fluorescence normalized to 1 ml culture divided by the optical density (OD600 nm.
Initially, the lasB-gfp(ASV) translational fusion (OdDHL sensor) was thoroughly characterized with respect to its sensitivity and specificity. A culture of E. coli hosting the pMHLAS monitor plasmid was diluted and spilt into several subcultures which were then supplemented with AHLs at concentrations ranging from 0 to 1000 nM. […] When the pMHLAS based reporter system was hosted by PAO-JP2. the OdDHL concentration required for half-maximal activation of the lasB-gfp(ASV) fusion was 8 nM (data not shown). In single copy on the chromosome of PAO-JP2, the OdDHL concentration on required for half-maximal activation of lasB expression was approximately 250 nM (FIG. 2b). Green fluorescent cells were visible by epifluorescence microscopy at a minimal OdDHL concentration of 50 nM (FIG. 2c).
Noteworthy, the inhibitory effect of furanone 56 was relieved at increased concentrations of OdDHL.

A further assay concerns P. aeruginosa PAO1. The assay can be described thus: Growth (optical density) of P. aeruginosa PAO1. In kind it is cell-based, Pseudomonas aeruginosa. As for the experimental part: as §1
To determine if the furanone compound worked specifically on the las quorum sensor and not indirectly by disruption of primary metabolic functions, we followed growth as optical density of P. aeruginosa PAO1 in the presence of furanone 56. […] Further, we tested whether the furanone affected P. aeruginosa protein synthesis. The wild type P. aeruginosa PAO1 strain containing the consitutive Gfp-expression vector pMH306 was grown in the presence of furanone 56 at concentrations from 0 to 10 μ/ml. Gfp-expression (fluorescence/OD600 nm) was throughout the growth cycle unaffected by the presence of furanone compound (data not shown).

For assay [2], the system named is las quorum sensing system (lasB-gfp(ASV) expression). Description: PlasB-gfp(ASV) reporter in planktonic wild type P. aeruginosa PAO1. The class given is cell-based, Pseudomonas aeruginosa. To be noted: for reduction in lasB(ASV) expression: wild type P. aeruginosa. As for the experimental part: as §1
The PlasB-gfp(ASV) reporter was inserted into the chromosome of wild type P. aeruginosa. […] The quorum size for lasB-gfp(ASV) induction corresponded to a cell density slightly above […] of 1.0, which is in agreement with other reports (Brumilk & Storey, 1992).

The next assay has as its system E. coli MT102. Description: Growth of E. coli MT102. The class given is cell-based, Escherichia coli. To be noted: data not shown. How it is done:
Effect of the furanone in a heterologous background. The direct regulation exerted by the las regulon on lasB expression is well described by numerous studies (Gambello & Iglewski, 1991: Pearson et al., 1994; Pearson et al., 1997). Regulatory complexity is added by the observation that the las quorum sensing circuit itself is subject to global regulators (Albus et al., 1997; Whiteley et al., 2000) and that lasB expression is also controlled by other regulators than LasR (Brumlik & Storey, 1992; Pesci et al., 1999; Schictman et al., 1995). It was, therefore, important to rule out that QSI effect, observed is not caused by furanone interaction with high levels of control. Since there is no AHL-based quorum sensing system present in Escherichia coli (Williams et al., 2000), this bacterium provides an unbiased and well-defined genetic background for studying the direct effects of the furanone on the P. aeruginosa las quorum sensing system. We repeated the above-described experiments using E. coli MT102 as a heterologous host for the reporter system. […] This is likely to be attributed to the increased copy number of the reporter plasmid.

Assay [3] has as its system protein synthesis (araC-PBAD-gfp(ASV)). The assay can be described thus: araC-PBAD-gfp(ASV) expression in biofilm, protein synthesis control. The class given is cell-based, Pseudomonas aeruginosa. The following applies: furanone 56 below 10 μg/ml, 0.2% L-arabinose; data not shown. How it is done: To determine if the furanone-mediated inhibition of green fluorescence is due to subtle non-specific effects on protein synthesis when the bacteria are growing in a biofilm, we examined expression of green fluorescence in cells harboring the araC-PBAD-gfp(ASV) cassette induced by suboptimal levels of L-arabinose is (0.2%). The cells became green fluorescent within 2 hours after induction.

With `O=C1C=C/C(=C/Br)O1` [furanone 56], in assay [1] (1.25 μ/ml (7.1 μM) furanone, range of OdDHL concentrations), the “effect on lasB-gfp(ASV) expression” value is reported as “inhibited lasB-gfp(ASV) expression at a wide range of OdDHL concentrations”. Further, the “complete inhibition of lasB-gfp(ASV) expression” value in assay [1] (any of the tested concentrations) is on record as “complete inhibition was not attained at any of the tested concentrations”. For the same molecule, the “concentrations without effect on growth” value with P. aeruginosa PAO1 was below 10 µg/mL; in the assay with P. aeruginosa PAO1 (listed as furanone), “below 10 μg/ml”. In addition, the effect on growth result in the assay with P. aeruginosa PAO1 (PAO1, concentrations used for this study (up to 10 μg/ml)) is recorded as “no or only little effect on growth”; in the assay with E. coli MT102 it was “no effect on growth”. Moreover, the figures for the “reduction in lasB(ASV) expression” value in assay [2] (5 μg/ml (28.5 μM) furanone) and in assay [2] (10 μg/ml furanone) were 40% and 60%, respectively. Also, the “reduction of transcription of the lasB promoter” value in assay [2] (planktonic cultures of PAO1) is “approximately 2 fold”. Also, the “effect on Gfp-expression” value in assay [3] was “no effect on Gfp-expression”.
